# Patent US20100041089A1, “IMPROVED METHOD FOR DETECTING CHEMICAL […]” (priority 2006, published 2010)
# Tested on: yeast genes (expressed mRNA)
# Assay: DNA chip measurement of expressed mRNA of yeast genes after culture with a toxic chemical substance
# Assay type: cell-based, Saccharomyces cerevisiae S288C
# Conditions: for level of expressed mRNA in the presence of chemical substance / level in the absence of chemical substance: cultured two hours with the chemical substance; for The level of expressed mRNA in the presence of chemical substance/The level of expressed mRNA in the absence of chemical substance: cultured two hours with substance
# Protocol: Yeast (Saccharomyces cerevisiae S288C (a SUC2mal mel gap2 CUP1)) were cultured at 25° C. on YPD medium (yeast extract 1%, polypeptone 2%, glucose 2%). One of toxic chemical substances was added to the cell at logarithmic growth phase, and the cell was further cultured for two hours. Cell was cultured without any chemical substance in the same condition, and was used as a control. Concentrations of the chemical substances were defined to inhibit the growth of the yeast but not lead to death.
# After the completion of cultivation, the culture was centrifuged to collect the cells. To the cells, sodium acetate buffer (50 mM sodium acetate, 10 mM EDTA, 1% SDS) was added, and the mixture was shaken at 65° C. for five minutes, followed by returning to room temperature, and obtaining the supernatant, which procedure was repeated two times. To the supernatant, ½ amount of a solution of phenol/chloroform (1:1) was added, and the mixture was centrifuged to give a supernatant, an equal amount of chloroform was added, and the mixture was centrifuged to give a supernatant. To the supernatant, an equal amount of isopropanol containing 0.3 M sodium acetate was added, and the mixture was allowed to stand at room temperature for 30 minutes, after which the mixture was centrifuged to give sediment of the whole RNAs. Seventy % ethanol was added to the sediment, and the mixture was again centrifuged to give sediment, which was then dried and dissolved in water. mRNA was isolated from the whole RNAs as followings. In view of the fact that a poly A chain is attached to the 3′ terminus of mRNA, a polynucleotide having a poly T structure which was immobilized on the surface of latex beads was used to trap the mRNA, and then the mRNA was washed and eluted with spine column (Oligotex-dT30<Super>mRNA Purification Kit, Takara). Reverse transcription of the mRNA was conducted with a reverse transcriptase (Super Script II Reverse Transcriptase; catalogue No. 18064-014, GibcoBRL) using fluorescence-labeled nucleotides to give cDNAs that were introduced with Cy3-dUTP or Cy5-dUTP during the reverse transcription.
# The labeled cDNAs were dissolved in TE buffer (10 mM Tris-HCl/1 mM EDTA, pH 8.0), and the solution was dropped on the DNA chip containing the whole genes of yeast (DNA Chip Research Inc. Japan) so that the cDNAs were hybridized on the DNA chip at 65° C. for over 12 hours. The fluoresces intensity of the DNA chip was read with a scanner, and the ratio relative to the fluorescence intensity resulting from the absence of chemical substance was estimated as the following, which is shown in Tables 1 to 9.
# In the Tables, “Intensity” indicated in the rightmost column is a value of the level of expressed mRNA of each gene in control cells as divided by the average level of the expressions of the whole genes. A gene of which mRNA level is lower in control, and is higher in cases of addition of chemical substance, is especially useful in the detection of toxic substances.
# Here, when a ratio of an amount of mRNA expressed in the presence of the chemical substance to an amount of mRNA expressed in the absence of the chemical substance is two or more, then it is considered significant.
compound,measurement,setting,value
"[Cl][Cd][Cl] [(2), CdCl2]",level of expressed mRNA in the presence of chemical substance / level in the absence of chemical substance,yeast gene YDR128W,3.9
same,level of expressed mRNA in the presence of chemical substance / level in the absence of chemical substance,yeast gene YDR133C,1.1
same,level of expressed mRNA in the presence of chemical substance / level in the absence of chemical substance,yeast gene YDR250C,1.4
same,level of expressed mRNA in the presence of chemical substance / level in the absence of chemical substance,yeast gene YDR278C,3.2
same,level of expressed mRNA in the presence of chemical substance / level in the absence of chemical substance,yeast gene YDR281C,2.6
same,The level of expressed mRNA in the presence of chemical substance/The level of expressed mRNA in the absence of chemical substance,yeast gene YDR330W,1.5
same,level of expressed mRNA in the presence of chemical substance / level in the absence of chemical substance,yeast gene YDR366C,2.0
same,The level of expressed mRNA in the presence of chemical substance/The level of expressed mRNA in the absence of chemical substance,yeast gene YDR411C,2.8
same,The level of expressed mRNA in the presence of chemical substance/The level of expressed mRNA in the absence of chemical substance,yeast gene YDR511W,1.7
same,The level of expressed mRNA in the presence of chemical substance/The level of expressed mRNA in the absence of chemical substance,yeast gene YDR545W,1.2
same,The level of expressed mRNA in the presence of chemical substance/The level of expressed mRNA in the absence of chemical substance,yeast gene YEL001C,1.0
same,The level of expressed mRNA in the presence of chemical substance/The level of expressed mRNA in the absence of chemical substance,yeast gene YER004W,1.5
same,The level of expressed mRNA in the presence of chemical substance/The level of expressed mRNA in the absence of chemical substance,yeast gene YER035W,1.6
same,The level of expressed mRNA in the presence of chemical substance/The level of expressed mRNA in the absence of chemical substance,yeast gene YER079W,1.6
same,The level of expressed mRNA in the presence of chemical substance/The level of expressed mRNA in the absence of chemical substance,yeast gene YER106W,0.7
same,The level of expressed mRNA in the presence of chemical substance/The level of expressed mRNA in the absence of chemical substance,yeast gene YER158C,0.9
same,The level of expressed mRNA in the presence of chemical substance/The level of expressed mRNA in the absence of chemical substance,yeast gene YER163C,2.4
same,The level of expressed mRNA in the presence of chemical substance/The level of expressed mRNA in the absence of chemical substance,yeast gene YER175C,1.2
same,The level of expressed mRNA in the presence of chemical substance/The level of expressed mRNA in the absence of chemical substance,yeast gene YFL006W,2.8
same,The level of expressed mRNA in the presence of chemical substance/The level of expressed mRNA in the absence of chemical substance,yeast gene YFL010C,4.8
same,The level of expressed mRNA in the presence of chemical substance/The level of expressed mRNA in the absence of chemical substance,yeast gene YFL024C,1.1
same,The level of expressed mRNA in the presence of chemical substance/The level of expressed mRNA in the absence of chemical substance,yeast gene YFL032W,1.5
same,level of expressed mRNA in the presence of chemical substance / level in the absence of chemical substance,yeast gene YFR026C,2.0
same,The level of expressed mRNA in the presence of chemical substance/The level of expressed mRNA in the absence of chemical substance,yeast gene YGL037C,2.7
same,The level of expressed mRNA in the presence of chemical substance/The level of expressed mRNA in the absence of chemical substance,yeast gene YGL047W,1.9
same,The level of expressed mRNA in the presence of chemical substance/The level of expressed mRNA in the absence of chemical substance,yeast gene YGL053W,1.5
same,level of expressed mRNA in the presence of chemical substance / level in the absence of chemical substance,yeast gene YGL088W,2.1
same,The level of expressed mRNA in the presence of chemical substance/The level of expressed mRNA in the absence of chemical substance,yeast gene YGL121C,5.0
same,The level of expressed mRNA in the presence of chemical substance/The level of expressed mRNA in the absence of chemical substance,yeast gene YGL199C,1.7
same,level of expressed mRNA in the presence of chemical substance / level in the absence of chemical substance,yeast gene YGR038W,1.2
same,The level of expressed mRNA in the presence of chemical substance/The level of expressed mRNA in the absence of chemical substance,yeast gene YGR101W,1.3
same,The level of expressed mRNA in the presence of chemical substance/The level of expressed mRNA in the absence of chemical substance,yeast gene YGR110W,3.1
same,The level of expressed mRNA in the presence of chemical substance/The level of expressed mRNA in the absence of chemical substance,yeast gene YGR130C,0.7
same,level of expressed mRNA in the presence of chemical substance / level in the absence of chemical substance,yeast gene YGR139W,3.7
same,The level of expressed mRNA in the presence of chemical substance/The level of expressed mRNA in the absence of chemical substance,yeast gene YGR154C,2.9
same,The level of expressed mRNA in the presence of chemical substance/The level of expressed mRNA in the absence of chemical substance,yeast gene YGR221C,2.2
same,level of expressed mRNA in the presence of chemical substance / level in the absence of chemical substance,yeast gene YGR243W,2.2
same,level of expressed mRNA in the presence of chemical substance / level in the absence of chemical substance,yeast gene YGR293C,1.9
same,level of expressed mRNA in the presence of chemical substance / level in the absence of chemical substance,yeast gene YHL006C,1.4
same,level of expressed mRNA in the presence of chemical substance / level in the absence of chemical substance,yeast gene YHR095W,2.6
same,level of expressed mRNA in the presence of chemical substance / level in the absence of chemical substance,yeast gene YHR105W,0.8
same,The level of expressed mRNA in the presence of chemical substance/The level of expressed mRNA in the absence of chemical substance,yeast gene YHR138C,1.8
same,level of expressed mRNA in the presence of chemical substance / level in the absence of chemical substance,yeast gene YHR181W,0.7
same,The level of expressed mRNA in the presence of chemical substance/The level of expressed mRNA in the absence of chemical substance,yeast gene YHR199C,2.0
same,The level of expressed mRNA in the presence of chemical substance/The level of expressed mRNA in the absence of chemical substance,yeast gene YIL023C,1.2
same,The level of expressed mRNA in the presence of chemical substance/The level of expressed mRNA in the absence of chemical substance,yeast gene YIL041W,1.2
same,The level of expressed mRNA in the presence of chemical substance/The level of expressed mRNA in the absence of chemical substance,yeast gene YIL087C,1.9
same,level of expressed mRNA in the presence of chemical substance / level in the absence of chemical substance,yeast gene YIL127C,4.8
same,level of expressed mRNA in the presence of chemical substance / level in the absence of chemical substance,yeast gene YJL017W,1.7
same,level of expressed mRNA in the presence of chemical substance / level in the absence of chemical substance,yeast gene YJL037W,1.4
same,The level of expressed mRNA in the presence of chemical substance/The level of expressed mRNA in the absence of chemical substance,yeast gene YJL057C,1.2
same,The level of expressed mRNA in the presence of chemical substance/The level of expressed mRNA in the absence of chemical substance,yeast gene YJL066C,1.2
same,The level of expressed mRNA in the presence of chemical substance/The level of expressed mRNA in the absence of chemical substance,yeast gene YJL082W,0.8
